According to US20260250320A1, “LIPIDATED PEPTIDE INHIBITORS OF INTERLEUKIN-23 RECEPTOR” (Janssen Pharmaceutica NV, priority 2023, published 2026):
*1 amine or outer side, *2 acyl side, *3 side chain or, on linkers, in order; H or OH if unused. Where a SMILES comes first, the peptide text is derived from it. Bridges are numbered along the chain shown (N, C = ends). Side-chain parts run from the residue outwards. [ ]: non-standard residue; d: D form. The star is where a group is joined. X42 = O=C(O)CCCCCCCCCCCCCCCCC(=O)N[C@H](CO)CCC(=O)*; Trp(7-Me) = Cc1cccc2c(C[C@H](N)C(=O)O)c[nH]c12; C18 diacid = O=C(O)CCCCCCCCCCCCCCCCC(=O)*; γGlu = O=C(O)[C@H](CCC(=O)[*:2])N[*:1]; 2Nal = N[C@@H](Cc1ccc2ccccc2c1)C(=O)O; AEF = NCCOc1ccc(C[C@H](N)C(=O)O)cc1; X2 = C[N+](C)(C)C[C@@H](CC(=O)O)N*; 3Pal = N[C@@H](Cc1cccnc1)C(=O)O; NMeK = CN[C@@H](CCCCN)C(=O)O; Pen = CC(C)(S)[C@H](N)C(=O)O; Suc = O=C(CCC(=O)[*:2])[*:1]; Thp = NC1(C(=O)O)CCOCC1; AEEA = NCCOCCOCC(=O)O; Sar = CNCC(=O)O

Key:
[1] = target: T1, IL-23R (Homo sapiens, UniProt Q5VWK5); test: IL23R Reporter Assay; format: cell-based; conditions: HEK293 cells containing IL-23R, IL-12Rβ1 and STAT-inducible firefly luciferase reporter; 10 ng/mL IL-23 (EC90); 5 h
T1 construct: HEK293 cells containing IL-23R, IL-12Rβ1 and a firefly luciferase reporter gene driven by a STAT-inducible promoter (Promega); host or cells: HEK293
T1 sequence (Q5VWK5 24-629): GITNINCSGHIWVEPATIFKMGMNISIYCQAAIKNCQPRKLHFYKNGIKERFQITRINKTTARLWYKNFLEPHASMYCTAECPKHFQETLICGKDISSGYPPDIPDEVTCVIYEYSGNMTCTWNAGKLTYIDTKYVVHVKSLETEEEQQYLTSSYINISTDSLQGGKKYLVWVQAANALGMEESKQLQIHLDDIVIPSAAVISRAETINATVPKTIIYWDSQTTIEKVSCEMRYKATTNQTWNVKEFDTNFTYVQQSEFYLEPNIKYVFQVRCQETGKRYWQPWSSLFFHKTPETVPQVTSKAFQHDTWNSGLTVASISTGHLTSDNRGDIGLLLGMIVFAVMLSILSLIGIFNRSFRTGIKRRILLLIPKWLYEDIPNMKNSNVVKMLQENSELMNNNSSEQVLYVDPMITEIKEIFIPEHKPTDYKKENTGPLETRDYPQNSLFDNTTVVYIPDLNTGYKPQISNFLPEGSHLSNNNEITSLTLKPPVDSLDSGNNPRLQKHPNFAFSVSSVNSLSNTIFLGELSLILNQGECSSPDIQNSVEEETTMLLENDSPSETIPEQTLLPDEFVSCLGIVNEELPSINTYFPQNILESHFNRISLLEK
Protocol: Compounds were serially diluted in 100% (v/v) DMSO) and plated using an Echo acoustic dispenser (Labcyte) into 1536-well non-treated black assay plates (Corning #9146). 3 μL of HEK293 cells containing IL-23R, IL-12Rβ1 and a firefly luciferase reporter gene driven by a STAT-inducible promoter (Promega) were added to the plates (4000 cells/well), followed by 3 μL of 10 ng/mL IL-23 (equivalent to EC90 concentration). After 5 h at 37° C., 5% CO2, 95% relative humidity, cells were placed at 20° C. and treated with BioGlo reagent (Promega) according to the Manufacturer's instructions. Luminescence was measured on a Pherastar FSX (BMG LabTech). Data were normalized to IL-23 treatment (0% inhibition) and 30 μM of control inhibitor (100% inhibition), and IC50 values were determined using a 4-parameter Hill equation.

[2] = tested on: IL-23-stimulated phosphorylated STAT3 in peripheral blood mononuclear cells (PBMCs); test: PBMC pSTAT3 Assay; format: cell-based; conditions: PBMCs from healthy donors; 30 min preincubation with peptide; IL-23 5 ng/mL for 30 min; phospho-STAT3 by MSD
Protocol: Cryopreserved peripheral blood mononuclear cells (PBMCs) from healthy donors were thawed and washed twice in ImmunoCult-XF T cell expansion medium (XF-TCEM) supplemented with CTL anti-aggregate wash. The cells were counted, resuspended at 2-6×10^5 cells per mL XF-TCEM supplemented with penicillin/streptomycin and 100 ng/mL […] (BioLegend, 579404), and cultured in tissue culture flasks coated with anti-CD3 (eBioscience, 16-0037-85 or BD Pharmingen, 555329) at 37° C. in 5% CO2. On day 4 of culture, PBMCs were collected, washed twice in RPMI-1640 supplemented with 0.1% BSA (RPMI-BSA), and incubated in RPMI-BSA in upright tissue culture flasks for ~4 hours at 37° C. in 5% CO2. Following this 'starvation,' a total of 6×10^4 cells in 30 μL RPMI-BSA was transferred into each well of a 384-well plate pre-spotted with peptide or DMSO. The cells were incubated for 30 minutes prior to the addition of […] at a final concentration of 5 ng/mL. The cells were stimulated with cytokine for 30 minutes at 37° C. in 5% CO2, transferred onto ice for 10 minutes, and lysed. Cell lysates were stored at -80° C. until phosphorylated STAT3 was measured using the phospho-STAT panel kit (Meso Scale Discovery, […]). Results are provided below. • A: IC50<0.5 nM; • B: 0.5 nM≤IC50<5 nM; • C: 5 nM≤IC50; • ND: Not determined

| Structure (SMILES) | IC50 [1] [nM] | IC50 [2] [nM] |
| --- | --- | --- |
| CC(=O)NCCCC[C@@H]1NC(=O)[C@H](Cc2c[nH]c3c(C)cccc23)NC(=O)[C@H]([C@@H](C)O)NC(=O)[C@H](CC(N)=O)NC(=O)[C@@H](NC(C)=O)C(C)(C)SSC(C)(C)[C@@H](C(=O)N[C@@H](Cc2ccc(OCCN)cc2)C(=O)N[C@@H](Cc2ccc3ccccc3c2)C(=O)NC2(C(=O)N[C@@H](CCCCNC(C)=O)C(=O)N[C@@H](CC(N)=O)C(=O)N[C@@H](Cc3cccnc3)C(=O)N(C)CC(=O)N[C@@H](CCCCNC(=O)CCOCCOCCOCCOCCOCCOCCOCCOCCOCCOCCOCCOCCNC(=O)CC[C@H](NC(=O)CCCCCCCCCCCCCCCCC(=O)O)C(=O)O)C(N)=O)CCOCC2)NC1=O [compound 102, MeCO-Pen(3)-N-T-7MeW-K(Ac)-Pen(3)-AEF-2Nal-THP-K(Ac)-N-3Pya-Sar-K(PEG12gEC18OH)-CONH2] | < 50 | < 0.5 |
| CC(=O)NCCCC[C@@H]1NC(=O)[C@H](Cc2c[nH]c3c(C)cccc23)NC(=O)[C@H]([C@@H](C)O)NC(=O)[C@H](CC(N)=O)NC(=O)[C@@H](NC(=O)[C@@H](CCCCNC(=O)COCCOCCNC(=O)COCCOCCNC(=O)CC[C@@H](CO)NC(=O)CCCCCCCCCCCCCCCCC(=O)O)NC(C)=O)C(C)(C)SSC(C)(C)[C@@H](C(=O)N[C@@H](Cc2ccc(OCCNC(=O)CCC(=O)N[C@H](CC(=O)O)C[N+](C)(C)C)cc2)C(=O)N[C@@H](Cc2ccc3ccccc3c2)C(=O)NC2(C(=O)N[C@@H](CCC(=O)O)C(=O)N[C@@H](CC(N)=O)C(=O)N[C@@H](Cc3cccnc3)C(=O)N(C)CC(N)=O)CCOCC2)NC1=O [compound 17, MeCO-k(PEG2PEG2gEC18OH)-Pen(3)-N-T-7MeW-K(Ac)-Pen(3)-AEF(d)-2Nal-THP-E-N-3Pya-Sar-CONH2] (Ac-[dK]([AEEA-AEEA-X42])[Pen]NT[Trp(7-Me)]K(Ac)[Pen][AEF]([Suc-X2])[2Nal][Thp]EN[3Pal][Sar]-NH2; disulfide 2-7) |  | < 0.5 |
| CC(=O)NCCCC[C@@H]1NC(=O)[C@H](Cc2c[nH]c3c(C)cccc23)NC(=O)[C@H]([C@@H](C)O)NC(=O)[C@H](CC(N)=O)NC(=O)[C@@H](NC(C)=O)C(C)(C)SSC(C)(C)[C@@H](C(=O)N[C@@H](Cc2ccc(OCCCCC[N+](C)(C)C)cc2)C(=O)N[C@@H](Cc2ccc3ccccc3c2)C(=O)NC2(C(=O)N[C@@H](CCCCNC(=O)COCCOCCNC(=O)COCCOCCNC(=O)CC[C@H](NC(=O)CCCCCCCCCCCCCCCCC(=O)O)C(=O)O)C(=O)N[C@@H](N)C(=O)N[C@@H](Cc3ccccn3)C(=O)N(C)CC(N)=O)CCOCC2)NC1=O [compound 86, MeCO-Pen(3)-N-T-7MeW-K(NMecPEG3a)-Pen(3)-AEF-2Nal-THP-K(PEG2PEG2gEC18OH)-N-3Pya-Sar-CONH2] |  | < 0.5 |
| CC(=O)NCCCC[C@@H]1NC(=O)[C@H](Cc2c[nH]c3c(C)cccc23)NC(=O)[C@H]([C@@H](C)O)NC(=O)[C@H](CC(N)=O)NC(=O)[C@@H](NC(=O)[C@@H](CCCNC(=N)N)NC(C)=O)C(C)(C)SSC(C)(C)[C@@H](C(=O)N[C@@H](Cc2ccc(OCCNC(=O)CCC(=O)N[C@H](CC(=O)O)C[N+](C)(C)C)cc2)C(=O)N[C@@H](Cc2ccc3ccccc3c2)C(=O)NC2(C(=O)N[C@@H](CCC(=O)O)C(=O)N[C@@H](CC(N)=O)C(=O)N[C@@H](Cc3cccnc3)C(=O)N(C)[C@@H](CCCCNC(=O)COCCOCCNC(=O)COCCOCCNC(=O)CC[C@H](NC(=O)CCCCCCCCCCCCCCCCC(=O)O)C(=O)O)C(N)=O)CCOCC2)NC1=O [compound 16, MeCO-r-Pen(3)-N-T-7MeW-K(Ac)-Pen(3)-AEF(d)-2Nal-THP-E-N-3Pya-NMeK(PEG2PEG2gEC18OH)-CONH2] (Ac-[dR][Pen]NT[Trp(7-Me)]K(Ac)[Pen][AEF]([Suc-X2])[2Nal][Thp]EN[3Pal][NMeK]([AEEA-AEEA-γGlu-C18 diacid])-NH2; disulfide 2-7) |  | < 0.5 |
